Reference: publication PMC3672506, “A useful EGFR-TK ligand for tumor diagnosis with SPECT: development of radioiodinated 6-(3-morpholinopropoxy)-7-ethoxy-4-(3′-iodophenoxy)quinazoline” (Annals of Nuclear Medicine, 2013)
Several values for one entry are separate records, joined by “and”; a condition that tells them apart may be missing. Equal values may be shown once.

Assays:
A431 tumor = test: Tumor uptake of radioiodinated ligands in A431 tumor-bearing mice; format: in vivo, balb/c nude mice; settings: A431 tumor-bearing mice; for accumulation in tumors: i.v., 1 h post injection
Method: A suspension of 1 × 10^7 A431 cells in 0.1 mL of medium was inoculated subcutaneously in male balb/c nude mice (4 weeks old, 20–25 g, n = 3). After approximately 2 weeks, when the solid tumor had grown to optimal size, the mice were used for tumor uptake studies. [^125I]6a–d (37 kBq, 74 TBq/mmol) in 0.1 mL of saline was injected intravenously into tumor-bearing mice via the lateral tail vein. At 1 or 24 h after administration, the animals were sacrificed. Samples of tumor were excised and weighed. Radioactivity was measured using a well-type NaI(Tl) scintillation gamma counter. The results were expressed in terms of percentage of injected dose per gram of tumor.

EGFR-TK [1] = biological target: T1, EGFR-TK (Homo sapiens, UniProt P00533); test: Inhibitory potency against EGFR-TK (SignaTECT protein kinase assay, [32P]ATP phosphorylation); format: biochemical; parameters: The EGF receptor used was an immunopurified receptor from human A431 cells (Promega, WI); purchased Promega; host or cells: A431 cells (endogenous receptor, immunopurified); settings: immunopurified EGF receptor from human A431 cells, inhibition of phosphorylation by [32P]ATP, triplicate
T1 sequence (P00533 25-1210): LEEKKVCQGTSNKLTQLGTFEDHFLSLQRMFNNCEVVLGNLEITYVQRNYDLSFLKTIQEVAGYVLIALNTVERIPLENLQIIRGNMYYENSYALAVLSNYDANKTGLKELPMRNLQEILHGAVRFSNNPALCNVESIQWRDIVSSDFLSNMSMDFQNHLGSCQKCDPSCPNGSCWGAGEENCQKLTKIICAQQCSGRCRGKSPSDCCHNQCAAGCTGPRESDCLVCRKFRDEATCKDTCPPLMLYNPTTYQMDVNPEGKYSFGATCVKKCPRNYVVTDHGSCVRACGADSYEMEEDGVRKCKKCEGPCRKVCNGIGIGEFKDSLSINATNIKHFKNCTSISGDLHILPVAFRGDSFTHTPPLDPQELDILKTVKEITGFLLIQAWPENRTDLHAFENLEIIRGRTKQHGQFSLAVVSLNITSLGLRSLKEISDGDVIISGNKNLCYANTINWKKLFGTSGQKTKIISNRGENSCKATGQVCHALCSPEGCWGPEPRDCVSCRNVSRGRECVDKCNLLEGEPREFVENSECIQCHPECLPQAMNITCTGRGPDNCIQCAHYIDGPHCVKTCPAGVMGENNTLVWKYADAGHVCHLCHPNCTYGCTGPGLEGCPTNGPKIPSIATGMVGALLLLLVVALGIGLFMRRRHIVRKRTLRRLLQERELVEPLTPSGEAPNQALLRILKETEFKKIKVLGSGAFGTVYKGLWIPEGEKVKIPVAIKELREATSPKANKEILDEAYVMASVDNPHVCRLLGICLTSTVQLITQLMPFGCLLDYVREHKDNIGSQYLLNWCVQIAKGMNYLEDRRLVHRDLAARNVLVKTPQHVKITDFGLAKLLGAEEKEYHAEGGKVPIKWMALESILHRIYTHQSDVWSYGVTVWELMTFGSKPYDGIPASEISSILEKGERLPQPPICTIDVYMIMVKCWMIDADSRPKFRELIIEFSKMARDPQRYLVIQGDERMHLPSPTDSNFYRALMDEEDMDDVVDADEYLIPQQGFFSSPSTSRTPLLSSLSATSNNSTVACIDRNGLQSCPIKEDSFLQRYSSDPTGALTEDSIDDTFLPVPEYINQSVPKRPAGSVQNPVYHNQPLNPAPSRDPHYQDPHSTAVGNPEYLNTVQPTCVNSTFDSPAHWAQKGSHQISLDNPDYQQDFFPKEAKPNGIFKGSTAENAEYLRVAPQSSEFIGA
Method: The inhibitory potency of the new derivatives against EGFR-TK was measured using a Signa TECT® Protein Kinase Assay System (Promega, WI) according to the protein tyrosine kinase assay protocol of the attached document. The EGF receptor used was an immunopurified receptor from human A431 cells (Promega, WI). […] The reaction was allowed to proceed for 10 min at 30 °C and then was stopped by the addition of guanidine hydrochloride solution (7.5 M, 13 μL). Each reaction mixture (12.5 μL) was spotted onto a biotin capture membrane. After all of the samples had been spotted, they were washed and rinsed as follows: 1 time for 30 s with 200 mL of 2 M NaCl, 3 times for 2 min each with 200 mL of 2 M NaCl, 4 times for 2 min each with 200 mL of 2 M NaCl in 1 % H3PO4, and 2 times for 30 s each with 100 mL of deionized water. The biotin capture membranes were dried on a piece of aluminum foil under a heat lamp for 5–10 min. The radioactivity trapped on the biotin capture membranes was counted with a liquid scintillation counter in 10 mL of scintillation fluid. The IC50 values were determined from sigmoid curves of the percent inhibition of [^32P]ATP radioactivity.
The inhibitory potency of new phenoxyquinazoline derivatives against EGFR-TK in A431 cell membranes was measured as the inhibition of EGFR phosphorylation by [^32P]ATP.

EGFR-TK [2] = system: EGFR-TK; parameters: method as in PMID 21058048, PMID 22354330; settings: ref [21], [22]; cited from earlier work
[3] = system: A431 epidermoid carcinoma cell line; settings: in vitro; ref [12], [13]; read-out: IC50, cytotoxicity A431 epidermoid carcinoma cell line; cited from earlier work
[4] = parameters: method as in PMID 21058048, PMID 22354330; settings: ref [21], [22]; cited from earlier work
EGFR-TK [5] = biological target: T1, EGFR-TK; settings: inhibitor 1 μM, A431 P2 membranes, 60 min, 25 °C
Excerpt: The difference between non-treatment and pretreatment data was examined by Student’s paired t test.

[6] = biological target: EGFR-TK in A431 cell membranes (Homo sapiens, UniProt P00533); format: binding; settings: A431 P2 membranes, Scatchard analysis
Sequence of EGFR-TK in A431 cell membranes (P00533 25-1210): as above
Method: Assays were carried out as described in the previous section. Crude P2 membrane fractions (A431or NALM6, 0.1 mg of protein, 10 μL) and [^125I]PYK (1–300 nM, 100 μL, 0.74 kBq) were used. […] Specific binding was defined as the difference between the total and non-specific binding. Scatchard plot analysis of the saturation binding data was used to determine the equilibrium dissociation constant (K d) and the maximal number of binding sites (B max).
The crude P2 membrane fraction from A431 or NAlM6 cells were used in further binding experiments for pharmacological characterization. […] While, in the NALM6 as a negative-EGFR leukemia cell line, [^125I]PYK binding to cell membranes was undetectable.

Structure (SMILES)	IC50 (EGFR-TK [1])	melting point [°C]	other results
CCOc1cc2ncnc(Oc3cccc([125I])c3)c2cc1OCCCN(C)C [[^125I]6d]			retention in tumors (in words) (A431 tumor; 24 h after injection): low retention; accumulation in tumors (A431 tumor): 0.55 ± 0.12 % ID/g tissue
COc1cc2ncnc(Nc3cccc(Br)c3)c2cc1OC [PD153035, 4-(3-bromoanilino)-6,7-dimethoxyquinazoline]			IC50 [3]: 0.029 nM
CCOc1cc2ncnc(Oc3cccc(I)c3)c2cc1OCCCc1ccccc1 [6e, 6-(3-Phenylpropoxy)-7-ethoxy-4-(3′-iodophenoxy)quinazoline]	> 500 nM	108 to 109	
CCOc1cc2ncnc(Oc3cccc([125I])c3)c2cc1OCC [[^125I]PHY]			accumulation in tumors (A431 tumor): 0.56 ± 0.12 % ID/g tissue; tumor-to-blood ratio [4]: 0.94–1.50; tumor-to-muscle ratio [4]: 1.02–1.95
CCOc1cc2ncnc(Oc3cccc(I)c3)c2cc1OCCCN1CCOCC1 [6a, 6-(3-Morpholinopropoxy)-7-ethoxy-4-(3′-iodophenoxy)quinazoline]	12 ± 3.9 nM	135 to 137	
CCOc1cc2ncnc(Oc3cccc(I)c3)c2cc1OCc1ccccc1 [6f, 6-Benzyloxy-7-ethoxy-4-(3′-iodophenoxy)quinazoline]	> 500 nM	140 to 142	
O=P(O)(O)C(O)c1ccc2ccccc2c1 (centres unmarked) [HNMPA]			blocking effect on [125I]PYK binding to EGFR-TK (EGFR-TK [5]): failed to block
CCOc1cc2ncnc(Nc3cccc(I)c3)c2cc1OCC [m-IPQ, 4-(3-Iodoanilino)-6,7-diethoxyquinazoline]			blocking effect on [125I]PYK binding to EGFR-TK (EGFR-TK [5]): significant reduction; IC50 (EGFR-TK [2]): 50.5 ± 3.5 nM
CCOc1cc2ncnc(Oc3cccc(I)c3)c2cc1OCCCN1CCOCC1 [[^125I]PYK]			Kd [6]: 51.3 ± 11.1 nM

Continued, in another order:

IC50 (EGFR-TK [1])	melting point [°C]	Structure (SMILES)	other results
49 ± 7.2 nM		CCOc1cc2ncnc(Oc3cccc(I)c3)c2cc1OCC [PHY, 4-(3-Iodophenoxy)-6,7-diethoxyquinazoline, reference compound]	IC50 (EGFR-TK [2]): 49 ± 7.2 nM
41.5 nM and 113 nM	59 to 62	CCOc1cc2ncnc(Oc3cccc(I)c3)c2cc1OC(C)C [6c, 6-Isopropoxy-7-ethoxy-4-(3′-iodophenoxy)quinazoline]	
16.5 ± 1.8 nM		CCOc1cc2ncnc(Oc3cccc(I)c3)c2cc1OCCCN1CCN(C)CC1 [6b, 6-[3-(4-Methylpiperazinylpropoxy)]-7-ethoxy-4-(3′-iodophenoxy)quinazoline]	
113 nM and 41.5 nM	64 to 67	CCOc1cc2ncnc(Oc3cccc(I)c3)c2cc1OCCCN(C)C [6d, 6-(3-Dimethylaminopropoxy)-7-ethoxy-4-(3′-iodophenoxy) quinazoline]	
